# Where a name gives a salt, the structure may show the parent alone. Read-outs that look alike come from different tables or passages of the source.
# Experiments:
# [1] = test system: NHBA (Neisseria Heparin Binding Antigen), recombinant (Neisseria meningitidis MC58 (serogroup B)); experiment: ITC; details: SPR: Biacore T200, CM5 chip, 1:5 dilution series 1 nM-100 uM, single cycle kinetics; ITC: nano-ITC, PBS-NHBA control (PBS implied); pH and temperature not …
# [2] = test system: NHBA (Neisseria Heparin Binding Antigen), recombinant (Neisseria meningitidis MC58 (serogroup B)); experiment: SPR; details: SPR: Biacore T200, CM5 chip, 1:5 dilution series 1 nM-100 uM, single cycle kinetics; ITC: nano-ITC, PBS-NHBA control (PBS implied); pH and temperature not …
# [3] = target: T1, NHBA (Neisseria Heparin Binding Antigen), recombinant (Neisseria meningitidis, UniProt Q7DD37); experiment: SPR, single cycle kinetics, immobilised NHBA
# T1 construct: pET19b, His-tagged; forward primer codes from SPDVK (lipoprotein signal peptide removed); immobilised by amine coupling on CM5 chip
# T1 sequence (Q7DD37 25-488): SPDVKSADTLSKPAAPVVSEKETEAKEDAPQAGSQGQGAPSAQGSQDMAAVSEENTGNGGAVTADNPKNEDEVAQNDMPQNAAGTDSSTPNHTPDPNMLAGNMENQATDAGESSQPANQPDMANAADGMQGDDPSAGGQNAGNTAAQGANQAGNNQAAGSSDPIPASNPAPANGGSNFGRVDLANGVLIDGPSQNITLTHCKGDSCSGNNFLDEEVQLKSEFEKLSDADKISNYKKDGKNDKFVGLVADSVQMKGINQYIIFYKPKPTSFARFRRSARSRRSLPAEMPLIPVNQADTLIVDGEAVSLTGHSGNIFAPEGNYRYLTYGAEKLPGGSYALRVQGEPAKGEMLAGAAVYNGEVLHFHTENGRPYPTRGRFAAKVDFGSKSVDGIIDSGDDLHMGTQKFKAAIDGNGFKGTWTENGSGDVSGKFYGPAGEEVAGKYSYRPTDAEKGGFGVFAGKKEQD
# [4] = read-out: KD (μM) (mean ± standard deviation); recombinant NHBA amine-coupled to CM5 chip; glycan in flow
# [5] = recombinant NHBA amine-coupled to CM5 chip; glycan in flow
molecule,measurement,setting,value
503 bp PCR fragment of N. meningitidis genomic DNA,Kd,[1],3330 nM
same,Kd,[2],71 nM
"CC(=O)N[C@H]1C(O)O[C@H](CO)[C@@H](O[C@@H]2O[C@H](CO)[C@H](O[C@H]3O[C@H](CO)[C@H](O)[C@H](O)[C@H]3O)[C@H](O)[C@H]2O)[C@@H]1O (stereo partly drawn) [2E, P1 antigen]",Kd,[3]; [4],14.9 ± 3.48 µM
"CC(=O)N[C@H]1C(O)O[C@H](CO)[C@@H](O[C@@H]2O[C@@H](C)[C@@H](O)[C@@H](O)[C@@H]2O)[C@@H]1O[C@@H]1O[C@H](CO)[C@H](O)[C@H](OS(=O)(=O)O)[C@H]1O (stereo partly drawn) [8A, Sulfo Lewis A]",Kd,[3]; [4],33.4 ± 2.54 µM
"O=S(=O)(O)O[C@@H]1[C@H](O[C@H]2O[C@@H]3CO[C@H]([C@H]2O)[C@H]3O[C@@H]2O[C@H](CO)[C@H](O)[C@H](O[C@H]3O[C@@H]4CO[C@@H]([C@H]4O)[C@H]3O)[C@H]2O)[C@@H](O)C(O)O[C@@H]1CO (stereo partly drawn) [12B, Neocarratetraose-4^1-O-sulfate (Na+)]",Kd,[3]; [4],0.446 ± 0.151 µM
"CC(=O)N[C@H]1C(O)O[C@H](CO)[C@@H](O)[C@@H]1O[C@@H]1OC(C(=O)O)=C[C@H](O)[C@H]1O (stereo partly drawn) [13E, Hyaluronan disaccharide ΔDi-HA]",Kd,[3]; [4],0.13 ± 0.03 µM
CC(=O)N[C@H]1C(O)O[C@H](CO)[C@H](OS(=O)(=O)O)[C@@H]1O[C@@H]1OC(C(=O)O)=C[C@H](O)[C@H]1OS(=O)(=O)O (stereo partly drawn) [chondroitin disaccharide sulfated at 2 of GlcA/IdoA and 4 of GalNAc],Kd,[3]; [5],0.5 µM
CC(=O)N[C@H]1C(O)O[C@H](COS(=O)(=O)O)[C@H](O)[C@@H]1O[C@@H]1OC(C(=O)O)=C[C@H](O)[C@H]1OS(=O)(=O)O (stereo partly drawn) [chondroitin sulfate type D disaccharide],Kd,[3]; [5],0.0095 µM
"O=P(O)(O)OC[C@H]1O[C@@H](O)[C@H](O)[C@@H](O)[C@@H]1O [compound 46, β-Glc6P]",Kd,[3]; recombinant NHBA amine-coupled to CM5 chip; glycan in flow; read-out: KD (μM) (mean ± standard deviation),0.056 ± 0.025 µM

# Reference: paper PMC5916922, “The Bexsero Neisseria meningitidis serogroup B vaccine antigen NHBA is a high-affinity chondroitin sulfate binding protein” (Scientific Reports, 2018)
